Where two headings read alike, the source gives them in different places.
Key:
IRAK4 enzyme = IRAK4 enzyme (Homo sapiens (Human), UniProt Q9NWZ3); experiment: biochemical; type: biochemical; conditions: IRAK4 enzyme, 500 μM ATP
TNFα = experiment: cells; type: cell-based, human; conditions: Homo sapiens, Monocyte, LPS-stimulated human monocytes, read-out: EC50 TNF

IRAK4 enzyme, sequence (Q9NWZ3 whole entry): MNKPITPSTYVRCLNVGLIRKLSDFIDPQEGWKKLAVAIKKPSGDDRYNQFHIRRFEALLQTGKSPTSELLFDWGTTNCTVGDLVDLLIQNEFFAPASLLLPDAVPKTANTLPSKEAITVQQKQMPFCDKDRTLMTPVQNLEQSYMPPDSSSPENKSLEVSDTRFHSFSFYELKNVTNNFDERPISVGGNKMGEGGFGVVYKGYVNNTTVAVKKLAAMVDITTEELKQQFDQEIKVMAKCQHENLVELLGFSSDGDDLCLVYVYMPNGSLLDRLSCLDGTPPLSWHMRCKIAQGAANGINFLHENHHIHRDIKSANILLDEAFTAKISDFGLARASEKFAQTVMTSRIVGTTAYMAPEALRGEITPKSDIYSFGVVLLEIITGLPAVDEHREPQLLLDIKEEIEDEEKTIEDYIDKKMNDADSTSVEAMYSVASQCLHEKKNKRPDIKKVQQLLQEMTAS

| SMILES | IC50 (IRAK4 enzyme; TR-FRET (HTRF)) | EC50 (TNFα; TNFα content) | IC50 (IRAK4 enzyme; TR-FRET) | EC50 (TNFα; TNFα by TR-FRET) |
| --- | --- | --- | --- | --- |
| CC(C)(O)[C@H](F)CNC(=O)c1cnc(-c2ccc3cc(C#N)cnn23)cc1N[C@H]1C[C@H](C(C)(C)O)C1 [Example 548, 6-(3-cyanopyrrolo[1,2-b]pyridazin-7-yl)-N-((R)-2-fluoro-3-hydroxy-3-methylbutyl)-4-(((1r,3R)-3-(2-hydroxypropan-2-yl)cyclobutyl)amino) nicotinamide] | 1 nM | 22 nM |  |  |
| CC(C)(O)[C@H](F)CNC(=O)c1cnc(-c2ccc3cc(C#N)cnn23)cc1N[C@@H]1CC[C@@H](N)C1 [Example 308, 4-(((1R,3R)-3-aminocyclopentyl)amino)-6-(3-cyano-pyrrolo[1,2-b]pyridazin-7-yl)-N-((R)-2-fluoro-3-hydroxy-3-methylbutyl) nicotinamide] |  | 46 nM | < 1 nM |  |
| CC(C)Nc1cc(-c2ccc3cc(C#N)cnn23)ncc1C(=O)NCC(=O)C(C)(C)O [Example 332, 6-(3-cyanopyrrolo[1,2-b]pyridazin-7-yl)-N-(3-hydroxy-3-methyl-2-oxobutyl)-4-(isopropyl-amino)nicotinamide] |  | 43 nM | < 1 nM |  |
| CC(C)Cc1cccc(Nc2cc(-c3ccc4cc(C#N)cnn34)ncc2C(=O)NC[C@@H](F)C(C)(C)O)c1 [Example 838, (R)-6-(3-cyanopyrrolo[1,2-b]pyridazin-7-yl)-N-(2-fluoro-3-hydroxy-3-methylbutyl)-4-((3-isobutylphenyl)amino) nicotinamide] |  |  | 57 nM | > 10000 nM |
| Cc1cc(Nc2cc(-c3ccc4cc(C#N)cnn34)ncc2C(=O)NC[C@@H](F)C(C)(C)O)ncc1C#N [Example 585, (R)-4-((5-cyano-4-methyl-pyridin-2-yl)amino)-6-(3-cyanopyrrolo[1,2-b]pyridazin-7-yl)-N-(2-fluoro-3-hydroxy-3-methyl-butyl)nicotinamide] | 2 nM | 104 nM |  |  |
| CC(C)(O)[C@H](F)CNC(=O)c1cnc(-c2ccc3cc(C#N)cnn23)cc1N[C@H]1C[C@H](COC(=O)N2CCC(F)(F)C2)C1 [Example 737, ((1R,3r)-3-((2-(3-cyano-pyrrolo[1,2-b]pyridazin-7-yl)-5-(((R)-2-fluoro-3-hydroxy-3-methylbutyl)carbamoyl)pyridin-4-yl)amino)cyclobutyl) methyl 3,3-difluoro-pyrrolidine-1-carboxylate] | < 1 nM | 26 nM |  |  |
| CC(C)(O)[C@H](F)CNC(=O)c1cnc(-c2ccc3cc(C#N)cnn23)cc1Nc1cnccn1 [Example 185, (R)-6-(3-cyanopyrrolo[1,2-b]pyridazin-7-yl)-N-(2-fluoro-3-hydroxy-3-methylbutyl)-4-(pyrazin-2-ylamino)nicotinamide] |  | 46 nM | < 1 nM |  |
| CC(C)(O)[C@H](F)CNC(=O)c1cnc(-c2ccc3cc(C#N)cnn23)cc1NC12CCC(C(=O)N3CC(C(F)F)C3)(CC1)CC2 [Example 393, (R)-6-(3-cyanopyrrolo[1,2-b]pyridazin-7-yl)-4-((4-(3-(difluoromethyl)azetidine-1-carbonyl)bicyclo[2.2.2]octan-1-yl)amino)-N-(2-fluoro-3-hydroxy-3-methylbutyl)nicotinamide] |  | 44 nM | < 1 nM |  |
| CC(=O)N1CC[C@@H]1CNc1cc(-c2ccc3cc(C#N)cnn23)ncc1C(=O)NC[C@@H](F)C(C)(C)O [Example 892, 4-((((R)-1-acetylazetidin-2-yl)methyl)amino)-6-(3-cyanopyrrolo[1,2-b]pyridazin-7-yl)-N-((R)-2-fluoro-3-hydroxy-3-methylbutyl)nicotinamide] |  |  | 3 nM | 808 nM |
| CC(=O)NC12CC(Nc3cc(-c4ccc5cc(C#N)cnn45)ncc3C(=O)NCC(F)F)(C1)C2 [Example 278, 4-((3-acetamido-bicyclo[1.1.1]pentan-1-yl)amino)-6-(3-cyano-pyrrolo[1,2-b]pyridazin-7-yl)-N-(2,2-difluoroethyl) nicotinamide] |  | 165 nM | 3 nM |  |
| CC(C)(O)[C@H](F)CNC(=O)c1cnc(-c2ccc3cc(C#N)cnn23)cc1Nc1ccc(-n2cncn2)nc1 [Example 766, (R)-4-((6-(1H-1,2,4-triazol-1-yl)pyridin-3-yl)amino)-6-(3-cyanopyrrolo[1,2-b]pyridazin-7-yl)-N-(2-fluoro-3-hydroxy-3-methyl-butyl)nicotinamide] | < 1 nM | 38 nM |  |  |
| Cc1nnc(-c2ccc(Nc3cc(-c4ccc5cc(C#N)cnn45)ncc3C(=O)NC[C@@H](F)C(C)(C)O)cc2)[nH]1 [Example 218, (R)-6-(3-cyanopyrrolo[1,2-b]pyridazin-7-yl)-N-(2-fluoro-3-hydroxy-3-methylbutyl)-4-((4-(5-methyl-4H-1,2,4-triazol-3-yl)phenyl)amino) nicotinamide] |  | 41 nM | < 1 nM |  |
| COc1ccc(Nc2cc(-c3ccc4cc(C#N)cnn34)ncc2C(=O)NC[C@@H](F)C(C)(C)O)cc1 [Example 609, (R)-6-(3-cyanopyrrolo[1,2-b]pyridazin-7-yl)-N-(2-fluoro-3-hydroxy-3-methylbutyl)-4-((4-methoxyphenyl)amino) nicotinamide] | < 1 nM | 35 nM |  |  |
| CC(C)(O)[C@H](F)CNC(=O)c1cnc(-c2ccc3cc(C#N)cnn23)cc1NC1CCC2(CCC(=O)N2)CC1 (stereo partly drawn) [Example 265, 6-(3-cyanopyrrolo[1,2-b]pyridazin-7-yl)-N-((R)-2-fluoro-3-hydroxy-3-methylbutyl)-4-(((5S,8s)-2-oxo-1-azaspiro[4.5]decan-8-yl)amino) nicotinamide] |  | 690 nM | 2 nM |  |
| CCOC(=O)N[C@H]1CC[C@H](Nc2cc(-c3ccc4cc(C#N)cnn34)ncc2C(=O)NC[C@@H](F)C(C)(C)O)CC1 [Example 292, ethyl ((1R,4r)-4-((2-(3-cyanopyrrolo[1,2-b]pyridazin-7-yl)-5-(((R)-2-fluoro-3-hydroxy-3-methylbutyl)carbamoyl)pyridin-4-yl)amino)cyclohexyl)carbamate] |  | 37 nM | 1 nM |  |
| CNC(=O)c1cnc(-c2ccc3cc(C#N)cnn23)cc1N[C@H]1CCC[C@@H](O)C1 [Example 512, 6-(3-cyanopyrrolo[1,2-b]pyridazin-7-yl)-4-(((1S,3R)-3-hydroxy-cyclohexyl)amino)-N-methylnicotinamide] | 3 nM | 98 nM |  |  |
| COC(=O)NC12CCC(Nc3cc(-c4ccc5cc(C#N)cnn45)ncc3C(=O)NC[C@@H](F)C(C)(C)O)(CC1)C2 [Example 500, (R)-methyl (4-((2-(3-cyano-pyrrolo[1,2-b]pyridazin-7-yl)-5-((2-fluoro-3-hydroxy-3-methylbutyl)carbamoyl)pyridin-4-yl)amino)bicyclo[2.2.1]heptan-1-yl)carbamate] | 1 nM | 13 nM |  |  |
| CC(C)(O)[C@H](F)CNC(=O)c1cnc(-c2ccc3cc(C#N)cnn23)cc1NC1CCN(S(C)(=O)=O)CC1 [Example 46, (R)-6-(3-cyanopyrrolo[1,2-b]pyridazin-7-yl)-N-(2-fluoro-3-hydroxy-3-methylbutyl)-4-((1-(methylsulfonyl)piperidin-4-yl)amino)nicotinamide] |  | 37 nM | < 1 nM |  |
| N#Cc1cnn2c(-c3cc(NC4COC4)c(C(=O)NCC(=O)N4CC(F)(F)C4)cn3)ccc2c1 [Example 626, 6-(3-cyanopyrrolo[1,2-b]pyridazin-7-yl)-N-(2-(3,3-difluoroazetidin-1-yl)-2-oxoethyl)-4-(oxetan-3-ylamino)nicotinamide] | < 1 nM | 79 nM |  |  |
| CNc1ccc(Nc2cc(-c3ccc4cc(C#N)cnn34)ncc2C(=O)NC[C@@H](F)C(C)(C)O)cn1 [Example 661, (R)-6-(3-cyanopyrrolo[1,2-b]pyridazin-7-yl)-N-(2-fluoro-3-hydroxy-3-methylbutyl)-4-((6-(methylamino)pyridin-3-yl)amino)nicotinamide] | < 1 nM | 19 nM |  |  |
| CC(=O)O[C@@H]1CCC[C@H](Nc2cc(-c3ccc4cc(C#N)cnn34)ncc2C(=O)NC[C@@H](F)C(C)(C)O)C1 [Example 501, (1R,3S)-3-((2-(3-cyanopyrrolo[1,2-b]pyridazin-7-yl)-5-(((R)-2-fluoro-3-hydroxy-3-methylbutyl)carbamoyl)pyridin-4-yl)amino)cyclohexyl acetate] | 2 nM | 63 nM |  |  |
| N#Cc1cnn2c(-c3cc(NC45CCC(O)(CC4)CC5)c(C(=O)NCC4COC4)cn3)ccc2c1 [Example 617, 6-(3-cyanopyrrolo[1,2-b]pyridazin-7-yl)-4-((4-hydroxybicyclo[2.2.2]octan-1-yl)amino)-N-(oxetan-3-ylmethyl) nicotinamide] | 2 nM | 144 nM |  |  |
| CC1(Nc2cc(-c3ccc4cc(C#N)cnn34)ncc2C(=O)NC[C@@H](F)C(C)(C)O)COC1 [Example 1, (R)-6-(3-cyanopyrrolo[1,2-b]pyridazin-7-yl)-N-(2-fluoro-3-hydroxy-3-methylbutyl)-4-((3-methyloxetan-3-yl)amino)nicotinamide] |  | 32 nM | < 1 nM |  |
| Cc1nnc(-c2ccc(Nc3cc(-c4ccc5cc(C#N)cnn45)ncc3C(=O)NC[C@@H](F)C(C)(C)O)cc2)o1 [Example 209, (R)-6-(3-cyanopyrrolo[1,2-b]pyridazin-7-yl)-N-(2-fluoro-3-hydroxy-3-methylbutyl)-4-((4-(5-methyl-1,3,4-oxadiazol-2-yl)phenyl)amino) nicotinamide] |  | 84 nM | < 1 nM |  |
| CC(C)Nc1cc(-c2ccc3cc(C#N)cnn23)ncc1C(=O)NC1CCS(=O)(=O)CC1 [Example 139, 6-(3-cyanopyrrolo[1,2-b]pyridazin-7-yl)-N-(1,1-dioxidotetrahydro-2H-thiopyran-4-yl)-4-(isopropylamino) nicotinamide] |  | 254 nM | 19 nM |  |
| N#Cc1cnn2c(-c3cc(NC45CCC(O)(CC4)CC5)c(C(=O)NCc4ccc[nH]c4=O)cn3)ccc2c1 [Example 624, 6-(3-cyanopyrrolo[1,2-b]pyridazin-7-yl)-4-((4-hydroxybicyclo[2.2.2]octan-1-yl)amino)-N-((2-oxo-1,2-dihydro-pyridin-3-yl)methyl) nicotinamide] | 3 nM | 1640 nM |  |  |

— patent publication US10336762B2 (priority 2017, dated 2019)
